According to patent publication US20250302784A1, “MYOBLAST PROLIFERATION PROMOTER AND MYOBLAST-PROLIFERATION PROMOTING COMPOSITION, AND MUSCLE ATROPHY INHIBITOR AND MUSCLE-ATROPHY INHIBITING COMPOSITION” (MARUZEN PHARMACEUTICALS CO., LTD., priority 2022, published 2025):

How the values were obtained:
[1] = system: rat model of disuse muscle atrophy; experiment: Test for muscle atrophy inhibition effect in rat model of disuse muscle atrophy (hindlimb suspension); assay type: in vivo, Wistar rats
Procedure: Whether muscle atrophy was inhibited by orally administering the compound represented by Structural Formula (1) (using the compound available from Cayman Chemical) to a rat model of disuse muscle atrophy for 14 days was tested according to the following testing method.
Seven week-old male Wistar (Crlj: WI) rats were acquired from Charles River Laboratories Japan, Inc., and were bred in the environment where a temperature was 23±3° C. and the humidity was 55±15% and in a cycle of 12 hours in light and 12 hours in dark. The rats were acclimated for one week before use, and were allowed to freely intake a solid feed (CRF-1, available from Oriental Yeast Co., Ltd.) and tap water.
After one week of acclimation, the Wistar rats were randomly divided into groups of eight. The rats were bred for 14 days in the state where the tail of each rat was held with clips so that the rat's hind legs were raised above the floor according to the method of Morey-Holton E R et al. During the breeding period, the rats were allowed to move around within a case with their forelimbs, and were allowed to freely intake water and a feed.
The test groups were (1) a normal group (without hindlimb suspension), (2) a control group (hindlimb suspension+0 mg/kg of the compound represented by Structural Formula (1)), (3) a group with the compound represented by Structural Formula (1) (hindlimb suspension+125 mg/kg of the compound represented by Structural Formula (1)).
The compound represented by Structural Formula (1) was dissolved in water, and the solution was administered by oral gavage every day for 14 days. Water was administered to the control group.
At the end of the test, the rats were euthanized by exsanguination under isoflurane anesthesia. Then, the soleus muscles were removed and the muscle weight was measured. In Table 2, the soleus muscle weight is an average value.

[2] = system: skeletal muscle-derived myoblasts (C2C12) of mice; experiment: Test for myoblast-proliferation promotion effect (MTT assay); assay type: cell-based; conditions: for Myoblast proliferation promotion rate (%): cultured 2 days, MTT, rate = A/B×100 vs cells without test sample
Procedure: A test on a myoblast proliferation effect of the compound represented by Structural Formula (1) (using the compound available from Sigma-Aldrich) was performed according to the following testing method.
After culturing skeletal muscle-derived myoblasts (C2C12) of mice in a Dulbecco's modified eagle medium (DMEM) containing 10% FBS, the cells were collected by trypsinization. The collected cells were diluted with a 5% FBS-containing DMEM so that a concentration of the cells was to be 2.0×10^4 cells/mL. Then, the dilution was seeded by 100 μL per well in a 96-well plate, followed by culturing for 6 hours. After completing the culture, a test sample dissolved in a 5% FBS-containing DMEM (see Table 1 below for the final concentration) was added by 100 μL per well, followed by culturing for 2 days. Even in the case where the test sample was not added, culturing was performed in the same manner except that the test sample was not added.
The myoblast-proliferation promotion effect was measured using an MTT assay. After completing the culture, the medium was removed, and MTT dissolved in a PBS buffer solution (PBS(−)) at a final concentration of 0.4 mg/mL was added by 100 μL per well. After culturing for 2 hours, blue formazan generated within the cells was extracted with 100 μL of 2-propanol. After the extraction, absorbance at a wavelength of 570 nm was measured. In addition, absorbance at a wavelength of 650 nm was measured as turbidity. The difference between the absorbance at the wavelength of 570 nm and the absorbance at the wavelength of 650 nm was used to determine an amount of blue formazan generated.
The myoblast proliferation promotion rate (%) was calculated from the obtained results according to the following equation.
Myoblast proliferation promotion rate (%)=A/B×100
In the equation above, A and B are as follows. • A: An amount of blue formazan generated in the cells to which the test sample was added. • B: An amount of blue formazan generated in the cells to which the test sample was not added.

O=C(O)CCc1ccc(O)c(O)c1 [3,4-dihydroxyhydrocinnamic acid]
Soleus muscle weight ([1]; hindlimb-suspended male Wistar rats, 125 mg/kg oral gavage daily for 14 days, average value (normal group 359.1, control group 139.3)): 151.3
Soleus muscle weight compared to the control group (in words) ([1]; hindlimb-suspended rats, 125 mg/kg oral, 14 days): increased compared to the control group
Muscle atrophy inhibition (in words) ([1]; rat model of disuse muscle atrophy, 125 mg/kg oral, 14 days): inhibited muscle atrophy
Myoblast-proliferation promotion effect (in words) ([2]; conclusion from Table 1): excellent myoblast-proliferation promotion effect
Myoblast proliferation promotion rate (%) ([2]; test sample 25 μmol/L): 106.4%
Myoblast proliferation promotion rate (%) ([2]; test sample 100 μmol/L): 108.0%
